This note sets out measurements from patent US12624018B1, “Inhibitors of RIPK2 and medical uses thereof” (Odyssey Therapeutics, Inc., priority 2022, dated 2026).

Bounds are passed on as bounds.

T1 sequence (O43353 1-299 limits assumed): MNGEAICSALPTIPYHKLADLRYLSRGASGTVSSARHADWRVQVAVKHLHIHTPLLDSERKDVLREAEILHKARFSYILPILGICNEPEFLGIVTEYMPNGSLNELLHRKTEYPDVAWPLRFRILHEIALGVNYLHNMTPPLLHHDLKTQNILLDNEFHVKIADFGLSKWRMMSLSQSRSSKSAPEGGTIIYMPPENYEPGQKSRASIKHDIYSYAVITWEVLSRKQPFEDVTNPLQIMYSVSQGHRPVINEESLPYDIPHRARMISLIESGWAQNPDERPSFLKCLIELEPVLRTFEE

This assay has as its target T1, RIPK2 enzyme (Homo sapiens, UniProt O43353).
T1 construct: purchased Carna 09-128
In words: RIPK2 inhibition (ADP-Glo Kinase Assay). It counts as biochemical. Conditions: RIPK2 5 nM, ATP 150 μM, MBP substrate, read-out: RIPK2 IC50. The method, boiled down: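 Human RIPK2 (5 nM) preincubated with compound 30 min at room temperature in 50 mM HEPES pH 7.5, 10 mM MgCl2, 2 mM DTT, 1 mM EGTA, 0.01% Brij-35, 0.05% BSA; native swine MBP as substrate. ADP formed quantified by ADP-Glo luminescence; percent inhibition relative to DMSO and no-enzyme controls.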
As for `Cc1cc(CC(=O)Nc2cc(C(C)(C)C)n[nH]2)ccc1Oc1ccnc2ccc(S(C)(=O)=O)cc12` [Compound 87, N-(5-(tert-butyl)-1H-pyrazol-3-yl)-2-(3-methyl-4-((6-(methylsulfonyl)quinolin-4-yl)oxy)phenyl)acetamide], the concentration for half-maximal inhibition (IC50) is less than 2.5 nM.

On to `Cc1cc(CC(=O)Nc2cc(C(C)(C)C)n[nH]2)ccc1Oc1ccnc2ccc(S(C)(=N)=O)cc12` (centres unmarked) [Compound 88, N-(5-(tert-butyl)-1H-pyrazol-3-yl)-2-(3-methyl-4-((6-(S-methylsulfonimidoyl)quinolin-4-yl)oxy)phenyl)acetamide], for which the half-inhibitory concentration (IC50) was less than 2.5 nM. In the case of `CC(C)(C)n1cc(NC(=O)Cc2ccc(Oc3ccnc4ccc(S(C)(=O)=O)cc34)c(Cl)c2)cn1` [Compound 89, N-(1-(tert-butyl)-1H-pyrazol-4-yl)-2-(3-chloro-4-((6-(methylsulfonyl)quinolin-4-yl)oxy)phenyl)acetamide], the IC50 was less than 2.5 nM.

On to `CC(C)(C)n1cc(NC(=O)Cc2ccc(Oc3ccnc4ccc(S(C)(=N)=O)cc34)c(Cl)c2)cn1` (centres unmarked) [Compound 90, N-(1-(tert-butyl)-1H-pyrazol-4-yl)-2-(3-chloro-4-((6-(S-methylsulfonimidoyl)quinolin-4-yl)oxy)phenyl)acetamide], for which the IC50 was 2.9 nM. Next, `[2H]C([2H])([2H])c1cc(CC(=O)Nc2cnn(C(C)(C)C)c2)ccc1Oc1ccnc2ccc(S(C)(=O)=O)cc12` [Compound 93, N-(1-(tert-butyl)-1H-pyrazol-4-yl)-2-(3-(methyl-d3)-4-((6-(methylsulfonyl)quinolin-4-yl)oxy)phenyl)acetamide]: less than 2.5 nM; `CCN1CCC(Oc2ccc3nccc(Oc4ccc(CC(=O)Nc5cnn(C(C)(C)C)c5)cc4C)c3c2)CC1` [Compound 94, N-(1-(tert-butyl)-1H-pyrazol-4-yl)-2-(4-((6-((1-ethylpiperidin-4-yl)oxy)quinolin-4-yl)oxy)-3-methylphenyl) acetamide]: less than 2.5 nM.

As for `Cc1cc(CC(=O)Nc2cnn(C(C)(C)C)c2)ccc1Oc1ccnc2ccc(OC3CCN(C4CC4)CC3)cc12` [Compound 95, N-(1-(tert-butyl)-1H-pyrazol-4-yl)-2-(4-((6-((1-cyclopropyl-piperidin-4-yl)oxy)quinolin-4-yl)oxy)-3-methylphenyl) acetamide], the IC50 is less than 2.5 nM.

For the molecule `Cc1cc(CC(=O)Nc2cnn(C(C)(C)C)c2)ccc1Oc1ccnc2ccc(OC3CCN(C4COC4)CC3)cc12` [Compound 96, N-(1-(tert-butyl)-1H-pyrazol-4-yl)-2-(3-methyl-4-((6-((1-(oxetan-3-yl)piperidin-4-yl)oxy)quinolin-4-yl)oxy)phenyl) acetamide], the IC50 is less than 2.5 nM. Next, `Cc1cc(CC(=O)Nc2cnn(C(C)(C)C)c2)ccc1Oc1ccnc2ccc(S(=O)(=O)C3CCN(C)CC3)cc12` [Compound 97, N-(1-(tert-butyl)-1H-pyrazol-4-yl)-2-(3-methyl-4-((6-((1-methylpiperidin-4-yl)sulfonyl)quinolin-4-yl)oxy)phenyl)acetamide]: less than 2.5 nM; `Cc1cc(CC(=O)Nc2cnn(C(C)(C)C)c2)ccc1Oc1ccnc2ccc(S(=O)(=O)C3CCOCC3)cc12` [Compound 98, N-(1-(tert-butyl)-1H-pyrazol-4-yl)-2-(3-methyl-4-((6-((tetrahydro-2H-pyran-4-yl)sulfonyl)quinolin-4-yl)oxy)phenyl)acetamide]: less than 2.5 nM. For the molecule `Cc1cc(CC(=O)Nc2cnn(C(C)(C)C)c2)ccc1Oc1ccnc2ccc(S(=O)(=O)C3CC3)cc12` [Compound 100, N-(1-(tert-butyl)-1H-pyrazol-4-yl)-2-(4-((6-(cyclopropylsulfonyl)quinolin-4-yl)oxy)-3-methylphenyl)acetamide], the IC50 was less than 2.5 nM. Next, `Cc1cc(CC(=O)Nc2cnn(C(C)(C)C)c2)ccc1Oc1ccnc2ccc(S(=O)(=O)C3COC3)cc12` [Compound 101, N-(1-(tert-butyl)-1H-pyrazol-4-yl)-2-(3-methyl-4-((6-(oxetan-3-ylsulfonyl)quinolin-4-yl)oxy)phenyl)acetamide]: less than 2.5 nM; `Cc1c(Oc2ccnc3ccc(OC4CCNCC4)cc23)ccc(CC(=O)Nc2cnn(C(C)(C)C)c2)c1F` [Compound 102, N-(1-(tert-butyl)-1H-pyrazol-4-yl)-2-(2-fluoro-3-methyl-4-((6-(piperidin-4-yloxy)quinolin-4-yl)oxy)phenyl) acetamide]: less than 2.5 nM. Next, `Cc1c(Oc2ccnc3ccc(OC4CCN(C)CC4)cc23)ccc(CC(=O)Nc2cnn(C(C)(C)C)c2)c1F` [Compound 103, N-(1-(tert-butyl)-1H-pyrazol-4-yl)-2-(2-fluoro-3-methyl-4-((6-((1-methylpiperidin-4-yl)oxy)quinolin-4-yl)oxy)phenyl)acetamide]: less than 2.5 nM. Next, `[2H]C([2H])([2H])c1cc(CC(=O)Nc2cnn(C(C)(C)C)c2)ccc1Oc1ccnc2ccc(OC3CCNCC3)cc12` [Compound 104, N-(1-(tert-butyl)-1H-pyrazol-4-yl)-2-(3-(methyl-d3)-4-((6-(piperidin-4-yloxy)quinolin-4-yl)oxy)phenyl) acetamide]: less than 2.5 nM. As to `[2H]C([2H])([2H])c1cc(CC(=O)Nc2cnn(C(C)(C)C)c2)ccc1Oc1ccnc2ccc(OC3CCN(C)CC3)cc12` [Compound 105, N-(1-(tert-butyl)-1H-pyrazol-4-yl)-2-(3-(methyl-d3)-4-((6-((1-methyl-piperidin-4-yl)oxy)quinolin-4-yl)oxy)phenyl) acetamide], the IC50 is less than 2.5 nM.

For the molecule `Cc1c(Oc2ncnc3ccc(OC4CCNCC4)cc23)ccc(CC(=O)Nc2cnn(C(C)(C)C)c2)c1F` [Compound 106, N-(1-(tert-butyl)-1H-pyrazol-4-yl)-2-(2-fluoro-3-methyl-4-((6-(piperidin-4-yloxy)quinazolin-4-yl)oxy)phenyl) acetamide], the half-maximal inhibitory concentration (IC50) is less than 2.5 nM. Take `Cc1c(Oc2ncnc3ccc(OC4CCN(C)CC4)cc23)ccc(CC(=O)Nc2cnn(C(C)(C)C)c2)c1F` [Compound 107, N-(1-(tert-butyl)-1H-pyrazol-4-yl)-2-(2-fluoro-3-methyl-4-((6-((1-methyl-piperidin-4-yl)oxy)quinazolin-4-yl)oxy)phenyl) acetamide]: the IC50 was less than 2.5 nM. Next, `CCN1CCC(Oc2ccc3nccc(Oc4cnc(CC(=O)Nc5cnn(C(C)(C)C)c5)c(F)c4)c3c2)CC1` [Compound 108, N-(1-(tert-butyl)-1H-pyrazol-4-yl)-2-(5-((6-((1-ethylpiperidin-4-yl)oxy)quinolin-4-yl)oxy)-3-fluoropyridin-2-yl)acetamide]: 11.3 nM; `CCN1CCC(Oc2ccc3ncnc(Oc4ccc(CC(=O)Nc5cnn(C(C)(C)C)c5)cc4C)c3c2)CC1` [Compound 109, N-(1-(tert-butyl)-1H-pyrazol-4-yl)-2-(4-((6-((1-ethyl-piperidin-4-yl)oxy)quinazolin-4-yl)oxy)-3-methylphenyl) acetamide]: 3.9 nM. To `Cc1cc(CC(=O)Nc2cnn(C(C)(C)C)c2)ccc1Oc1ccnc2ccc(OC3CCN(CC(F)(F)F)CC3)cc12` [Compound 110, N-(1-(tert-butyl)-1H-pyrazol-4-yl)-2-(3-methyl-4-((6-((1-(2,2,2-trifluoroethyl)piperidin-4-yl)oxy)quinolin-4-yl)oxy)phenyl) acetamide] belongs less than 2.5 nM. Next, `Cc1cc(CC(=O)Nc2cnn(C(C)(C)C)c2)ccc1Oc1ncnc2ccc(OC3CCN(CC(F)(F)F)CC3)cc12` [Compound 111, N-(1-(tert-butyl)-1H-pyrazol-4-yl)-2-(3-methyl-4-((6-((1-(2,2,2-trifluoroethyl)piperidin-4-yl)oxy)quinazolin-4-yl)oxy)phenyl) acetamide]: 36.4 nM; `CC(C)(C)n1cc(NC(=O)Cc2ncc(Oc3ncnc4ccc(OC5CCN(CC(F)(F)F)CC5)cc34)cc2F)cn1` [Compound 112, N-(1-(tert-butyl)-1H-pyrazol-4-yl)-2-(3-fluoro-5-((6-((1-(2,2,2-trifluoroethyl)piperidin-4-yl)oxy)quinazolin-4-yl)oxy)pyridin-2-yl)acetamide]: 20.8 nM.

With `Cc1cc(CC(=O)Nc2cnn(C(C)(C)C)c2)c(F)cc1Oc1ccnc2ccc(OC3CCNCC3)cc12` [Compound 114, N-(1-(tert-butyl)-1H-pyrazol-4-yl)-2-(2-fluoro-5-methyl-4-((6-(piperidin-4-yloxy)quinolin-4-yl)oxy)phenyl) acetamide], the IC50 is less than 2.5 nM. To `Cc1cc(CC(=O)Nc2cnn(C(C)(C)C)c2)c(F)cc1Oc1ccnc2ccc(OC3CCN(C)CC3)cc12` [Compound 115, N-(1-(tert-butyl)-1H-pyrazol-4-yl)-2-(2-fluoro-5-methyl-4-((6-((1-methyl-piperidin-4-yl)oxy)quinolin-4-yl)oxy)phenyl) acetamide] belongs less than 2.5 nM; to `Cc1cc(CC(=O)Nc2cnn(C(C)(C)C)c2)c(F)cc1Oc1ncnc2ccc(OC3CCNCC3)cc12` [Compound 116], less than 2.5 nM.

As for `Cc1cc(CC(=O)Nc2cnn(C(C)(C)C)c2)c(F)cc1Oc1ncnc2ccc(OC3CCN(C)CC3)cc12` [Compound 117, N-(1-(tert-butyl)-1H-pyrazol-4-yl)-2-(2-fluoro-5-methyl-4-((6-((1-methyl-piperidin-4-yl)oxy)quinazolin-4-yl)oxy)phenyl) acetamide], the 50% inhibitory concentration (IC50) was less than 2.5 nM.

For the molecule `Cc1cc(CC(=O)Nc2cnn(C(C)(C)C)c2)ccc1Oc1ccnc2ccc(S(=O)(=O)N3CCN(C)CC3)cc12` [Compound 118, N-(1-(tert-butyl)-1H-pyrazol-4-yl)-2-(3-methyl-4-((6-((4-methylpiperazin-1-yl)sulfonyl)quinolin-4-yl)oxy)phenyl)acetamide], the IC50 is less than 2.5 nM.

`Cc1cc(CC(=O)Nc2cnn(C(C)(C)C)c2)ccc1Oc1ccnc2ccc(S(=O)(=O)N3CCNCC3)cc12` [Compound 119, N-(1-(tert-butyl)-1H-pyrazol-4-yl)-2-(3-methyl-4-((6-(piperazin-1-ylsulfonyl)quinolin-4-yl)oxy)phenyl)acetamide]: the IC50 was less than 2.5 nM.
